# From US20250296959A1, “B7-H3 TARGETING PEPTIDES AND CONSTRUCTS THEREOF” (Mariana Oncology Inc., priority 2024, published 2025)
# pKd: −log10 of the molar value. Starred links: 1 amine or outer side, 2 acyl side, 3 side chain; linkers in the order of their positions; H or OH if unused. Positions of bridges follow the written chain, without caps; N, C: chain ends. Non-standard residues stand in square brackets, D forms with d. Residues, ends and D or L forms follow the SMILES beside them. Groups on a side chain read outwards from the residue. *: point of attachment. X4 = O=C(O)CN1CCN(CC(=O)O)CCN([C@H](CCC(=O)*)C(=O)O)CCN(CC(=O)O)CC1; Ala(piperidin-4-yl) = O=C([C@H](CC1CCN([*:3])CC1)N[*:1])[*:2]; Phe(3R-OH) = O=C([C@@H](N[*:1])[C@H](O[*:3])c1ccccc1)[*:2]; DOTA = O=C(O)CN1CCN(CC(=O)O)CCN(CC(=O)*)CCN(CC(=O)O)CC1; Phe(4-NHCONH2) = NC(=O)Nc1ccc(C[C@H](N)C(=O)O)cc1; Trp(5-F) = N[C@@H](Cc1c[nH]c2ccc(F)cc12)C(=O)O; X1 = C[C@@H](c1ccccc1)[C@H](N[*:1])C(=O)[*:2]; Phe(3-Cl) = N[C@@H](Cc1cccc(Cl)c1)C(=O)O; γGlu = O=C(O)[C@H](CCC(=O)[*:2])N[*:1]; Ala(4-THP) = N[C@@H](CC1CCOCC1)C(=O)O; Val(3-OH) = CC(C)(O)[C@H](N)C(=O)O; hPhe = N[C@@H](CCc1ccccc1)C(=O)O; Cha = N[C@@H](CC1CCCCC1)C(=O)O; Tle = CC(C)(C)[C@H](N)C(=O)O; hLeu = CC(C)CC[C@H](N)C(=O)O; NMeC = CN[C@@H](CS)C(=O)O; Nle = CCCC[C@H](N)C(=O)O
# Biological target: T1, human 4lg B7-H3 (Homo sapiens, UniProt Q5ZPR3)
# T1 sequence (Q5ZPR3 29-534): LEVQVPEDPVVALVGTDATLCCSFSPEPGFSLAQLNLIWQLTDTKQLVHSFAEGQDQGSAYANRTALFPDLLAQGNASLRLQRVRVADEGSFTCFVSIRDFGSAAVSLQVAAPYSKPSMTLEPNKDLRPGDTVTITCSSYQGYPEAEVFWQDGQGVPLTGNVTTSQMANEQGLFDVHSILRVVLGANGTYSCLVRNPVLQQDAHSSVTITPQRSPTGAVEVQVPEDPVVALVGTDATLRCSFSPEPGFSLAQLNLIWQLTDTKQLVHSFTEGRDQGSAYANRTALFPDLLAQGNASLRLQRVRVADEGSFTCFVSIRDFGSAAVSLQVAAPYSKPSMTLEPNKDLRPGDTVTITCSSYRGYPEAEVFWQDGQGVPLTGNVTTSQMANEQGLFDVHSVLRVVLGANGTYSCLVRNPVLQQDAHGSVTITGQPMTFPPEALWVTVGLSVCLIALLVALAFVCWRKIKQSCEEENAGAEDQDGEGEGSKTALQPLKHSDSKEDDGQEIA
# Assay: Affinity determination by surface plasmon resonance (SPR) to 4Ig B7-H3
# Settings: SPR KD—25° C., 4Ig B7-H3; 25° C. flow cell temperature
row,Structure (SMILES),pKd
1,"CC(=O)N[C@@H](CCC(C)C)C(=O)N[C@@H](Cc1ccc(O)cc1)C(=O)N[C@H]1CSSC[C@@H](C(=O)N[C@@H](Cc2c[nH]c3ccc(F)cc23)C(=O)N[C@@H](Cc2ccccc2)C(=O)N[C@H](C(N)=O)C(C)(C)O)NC(=O)[C@H](Cc2ccc(O)cc2)NC(=O)[C@H](C(C)C)NC(=O)[C@H](CC(=O)O)NC(=O)[C@H](CC2CCCCC2)NC(=O)[C@H](CCCCNC(=O)CN2CCN(CC(=O)O)CCN(CC(=O)O)CCN(CC(=O)O)CC2)NC(=O)CNC(=O)[C@H](C(C)C)NC1=O [compound 201, Ac-hLeu-Y-C-V-G-Lys(DOTA)-CHA-D-V-Y-C-5FW-F-hydroxyVal-CONH2] (Ac-[hLeu]YCVGK(DOTA)[Cha]DVYC[Trp(5-F)]F[Val(3-OH)]-NH2; disulfide 3-11)",8.00 to 9.00
2,"CC(=O)N[C@@H](CCC(C)C)C(=O)N[C@@H](Cc1ccc(O)cc1)C(=O)N(C)[C@H]1CSSC[C@@H](C(=O)N[C@@H](Cc2c[nH]c3ccc(F)cc23)C(=O)N[C@@H](Cc2ccccc2)C(=O)N[C@H](C(=O)N[C@H](CCCCNC(=O)CN2CCN(CC(=O)O)CCN(CC(=O)O)CCN(CC(=O)O)CC2)C(=O)O)[C@@H](C)O)NC(=O)[C@H](Cc2ccc(O)cc2)NC(=O)[C@H](C(C)C)NC(=O)[C@H](CC(=O)O)NC(=O)[C@H](CC2CCOCC2)NC(=O)[C@H](CCCCN)NC(=O)CNC(=O)[C@H](C(C)C)NC1=O [compound 361, Ac-hLeu-Y-NMeCys-V-G-K-ThpA-D-V-Y-C-5FW-F-Thr-dLys(DOTA)-COOH] (Ac-[hLeu]Y[NMeC]VGK[Ala(4-THP)]DVYC[Trp(5-F)]FT[dK](DOTA)-OH; disulfide 3-11)",8.00 to 9.00
3,"CCCC[C@H](NC(C)=O)C(=O)N[C@@H](Cc1ccc(O)cc1)C(=O)N[C@H]1CSSC[C@@H](C(=O)N[C@@H](Cc2c[nH]c3ccccc23)C(=O)N[C@@H](Cc2ccccc2)C(=O)N[C@@H](CC2CCNCC2)C(=O)N[C@H](CCCCNC(=O)CN2CCN(CC(=O)O)CCN(CC(=O)O)CCN(CC(=O)O)CC2)C(N)=O)NC(=O)[C@H](Cc2ccc(O)cc2)NC(=O)[C@H](C(C)C)NC(=O)[C@H](CC(=O)O)NC(=O)[C@H](Cc2ccc(O)cc2)NC(=O)[C@H](CCCCN)NC(=O)CNC(=O)[C@H](C(C)C)NC1=O [compound 89, Ac-Nle-Y-C-V-G-K-Y-D-V-Y-C-W-F-4PipAla-dLys(DOTA)-CONH2] (Ac-[Nle]YCVGKYDVYCWF[Ala(piperidin-4-yl)][dK](DOTA)-NH2; disulfide 3-11)",7.00 to 8.00
4,"CC(=O)N[C@@H](CCC(C)C)C(=O)N[C@@H](Cc1ccc(O)cc1)C(=O)N[C@H]1CSSC[C@@H](C(=O)N[C@@H](CCc2ccccc2)C(=O)N[C@@H](Cc2ccccc2)C(=O)N[C@H](C(=O)N[C@H](CCCCNC(=O)CN2CCN(CC(=O)O)CCN(CC(=O)O)CCN(CC(=O)O)CC2)C(=O)O)[C@@H](C)O)NC(=O)[C@H](Cc2ccc(O)cc2)NC(=O)[C@H](C(C)C)NC(=O)[C@H](CC(=O)O)NC(=O)[C@H](CC2CCOCC2)NC(=O)[C@H](CCCCN)NC(=O)CNC(=O)[C@H](C(C)(C)C)NC1=O [compound 359, Ac-hLeu-Y-C-Tbg-G-K-ThpA-D-V-Y-C-hF-F-Thr-dLys(DOTA)-COOH] (Ac-[hLeu]YC[Tle]GK[Ala(4-THP)]DVYC[hPhe]FT[dK](DOTA)-OH; disulfide 3-11)",6.52 to 7.00
5,"CC(=O)N[C@@H](CCC(C)C)C(=O)N[C@@H](Cc1ccc(O)cc1)C(=O)N[C@H]1CSSC[C@@H](C(=O)N[C@@H](Cc2c[nH]c3ccc(F)cc23)C(=O)N[C@@H](Cc2ccccc2)C(=O)N2CCC[C@H]2C(N)=O)NC(=O)[C@H](Cc2ccc(O)cc2)NC(=O)[C@H](C(C)C)NC(=O)[C@H](CC(=O)O)NC(=O)[C@H](CC2CCOCC2)NC(=O)[C@H](CCCCNC(=O)CN2CCN(CC(=O)O)CCN(CC(=O)O)CCN(CC(=O)O)CC2)NC(=O)CNC(=O)[C@H](C(C)(C)C)NC1=O [compound 273, Ac-hLeu-Y-C-Tbg-G-Lys(DOTA)-ThpA-D-V-Y-C-5FW-F-Pro-CONH2] (Ac-[hLeu]YC[Tle]GK(DOTA)[Ala(4-THP)]DVYC[Trp(5-F)]FP-NH2; disulfide 3-11)",7.00 to 8.00
6,"CCCC[C@H](NC(C)=O)C(=O)N[C@@H](Cc1ccc(O)cc1)C(=O)N[C@H]1CSSC[C@@H](C(=O)N[C@@H](Cc2c[nH]c3ccccc23)C(=O)N[C@@H](Cc2ccccc2)C(=O)N[C@H](C(=O)N[C@H](CCCCNC(=O)CN2CCN(CC(=O)O)CCN(CC(=O)O)CCN(CC(=O)O)CC2)C(N)=O)[C@@H](C)O)NC(=O)[C@H](Cc2ccc(O)cc2)NC(=O)[C@H](C(C)C)NC(=O)[C@H](CC(=O)O)NC(=O)[C@H](Cc2ccc(O)cc2)NC(=O)[C@H](CCCCNC(C)=O)NC(=O)CNC(=O)[C@H](C(C)C)NC1=O [compound 65, Ac-Nle-Y-C-V-G-Lys(Ac)-Y-D-V-Y-C-W-F-Thr-dLys(DOTA)-CONH2] (Ac-[Nle]YCVGK(Ac)YDVYCWFT[dK](DOTA)-NH2; disulfide 3-11)",7.00 to 8.00

# Same assay, conditions: SPR KD—37° C., 4Ig B7-H3; 37° C. flow cell temperature
row,Structure (SMILES),pKd
1,"CC(=O)N[C@@H](CCC(C)C)C(=O)N[C@@H](Cc1ccc(O)cc1)C(=O)N[C@H]1CSSC[C@@H](C(=O)N[C@@H](Cc2c[nH]c3ccc(F)cc23)C(=O)N[C@H](C(=O)N[C@H](C(=O)N[C@H](CCCCNC(=O)[C@H](CCC(=O)O)NC(=O)CN2CCN(CC(=O)O)CCN(CC(=O)O)CCN(CC(=O)O)CC2)C(=O)O)C(C)(C)O)[C@@H](C)c2ccccc2)NC(=O)[C@H](Cc2ccc(NC(N)=O)cc2)NC(=O)[C@H](C(C)C)NC(=O)[C@H](CC(=O)O)NC(=O)[C@H](CC2CCOCC2)NC(=O)[C@H](CC2CCNCC2)NC(=O)CNC(=O)[C@H](C(C)(C)C)NC1=O [compound 503, Ac-hLeu-Y-C-Tbg-G-PipAla-ThpA-D-V-Aph(Cbm)-C-5FW-[(2S, 3S)beta-Me-Phe]-hydroxyVal-dLys(Glu-DOTA)-COOH] (Ac-[hLeu]YC[Tle]G[Ala(piperidin-4-yl)][Ala(4-THP)]DV[Phe(4-NHCONH2)]C[Trp(5-F)][X1][Val(3-OH)][dK]([Glu-DOTA])-OH; disulfide 3-11)",> 9.00
2,"CC(=O)N[C@@H](CCC(C)C)C(=O)N[C@@H](Cc1ccc(O)cc1)C(=O)N[C@H]1CSSC[C@@H](C(=O)N[C@@H](Cc2c[nH]c3ccc(F)cc23)C(=O)N[C@@H](Cc2cccc(Cl)c2)C(=O)N[C@H](C(=O)N[C@H](CCCCNC(=O)CN2CCN(CC(=O)O)CCN(CC(=O)O)CCN(CC(=O)O)CC2)C(=O)O)C(C)(C)O)NC(=O)[C@H](Cc2ccc(O)cc2)NC(=O)[C@H](C(C)C)NC(=O)[C@H](CC(=O)O)NC(=O)[C@H](CC2CCOCC2)NC(=O)[C@H](CC2CCNCC2)NC(=O)CNC(=O)[C@H](C(C)(C)C)NC1=O [compound 430, Ac-hLeu-Y-C-Tbg-G-PipAla-ThpA-D-V-Y-C-5FW-3CIPhe-hydroxyVal-dLys(DOTA)-COOH] (Ac-[hLeu]YC[Tle]G[Ala(piperidin-4-yl)][Ala(4-THP)]DVYC[Trp(5-F)][Phe(3-Cl)][Val(3-OH)][dK](DOTA)-OH; disulfide 3-11)",> 9.00
3,"CC(=O)N[C@@H](CCC(C)C)C(=O)N[C@@H](Cc1ccc(O)cc1)C(=O)N[C@H]1CSSC[C@@H](C(=O)N[C@@H](Cc2c[nH]c3ccc(F)cc23)C(=O)N[C@@H](Cc2ccccc2)C(=O)N[C@H](C(=O)N[C@H](CCCCNC(=O)CC[C@H](NC(=O)CN2CCN(CC(=O)O)CCN(CC(=O)O)CCN(CC(=O)O)CC2)C(=O)O)C(N)=O)C(C)(C)O)NC(=O)[C@H](Cc2ccc(O)cc2)NC(=O)[C@H](C(C)C)NC(=O)[C@H](CC(=O)O)NC(=O)[C@H](CC2CCOCC2)NC(=O)[C@H](CC2CCNCC2)NC(=O)CNC(=O)[C@H](C(C)(C)C)NC1=O [compound 452, Ac-hLeu-Y-C-Tbg-G-PipAla-ThpA-D-V-Y-C-5FW-F-hydroxyVal-dLys(gE-DOTA)-CONH2] (Ac-[hLeu]YC[Tle]G[Ala(piperidin-4-yl)][Ala(4-THP)]DVYC[Trp(5-F)]F[Val(3-OH)][dK]([γGlu-DOTA])-NH2; disulfide 3-11)",> 9.00
4,"CC(=O)N[C@@H](CCC(C)C)C(=O)N[C@@H](Cc1ccc(O)cc1)C(=O)N[C@H]1CSSC[C@@H](C(=O)N[C@@H](Cc2c[nH]c3ccc(F)cc23)C(=O)N[C@@H](Cc2ccccc2)C(=O)N[C@H](C(=O)N[C@H](CCC(=O)O)C(N)=O)C(C)(C)O)NC(=O)[C@H](Cc2ccc(O)cc2)NC(=O)[C@H](C(C)C)NC(=O)[C@H](CC(=O)O)NC(=O)[C@H](CC2CCN(C(=O)CC[C@H](C(=O)O)N3CCN(CC(=O)O)CCN(CC(=O)O)CCN(CC(=O)O)CC3)CC2)NC(=O)[C@H](CC2CCNCC2)NC(=O)CNC(=O)[C@H](C(C)(C)C)NC1=O [compound 460, Ac-hLeu-Y-C-Tbg-G-PipAla-Pip(R-DOTAGA)Ala-D-V-Y-C-5FW-F-hydroxyVal-dGlu-CONH2] (Ac-[hLeu]YC[Tle]G[Ala(piperidin-4-yl)][Ala(piperidin-4-yl)](X4)DVYC[Trp(5-F)]F[Val(3-OH)][dE]-NH2; disulfide 3-11)",> 9.00
5,"CC(=O)N[C@@H](CCC(C)C)C(=O)N[C@@H](Cc1ccc(O)cc1)C(=O)N[C@H]1CSSC[C@@H](C(=O)N[C@@H](Cc2c[nH]c3ccc(F)cc23)C(=O)N[C@H](C(=O)N[C@H](C(=O)N[C@H](CCCCNC(=O)CN2CCN(CC(=O)O)CCN(CC(=O)O)CCN(CC(=O)O)CC2)C(=O)O)C(C)(C)O)[C@H](O)c2ccccc2)NC(=O)[C@H](Cc2ccc(O)cc2)NC(=O)[C@H](C(C)C)NC(=O)[C@H](CC(=O)O)NC(=O)[C@H](CC2CCOCC2)NC(=O)[C@H](CC2CCNCC2)NC(=O)CNC(=O)[C@H](C(C)(C)C)NC1=O [compound 469, Ac-hLeu-Y-C-Tbg-G-PipAla-ThpA-D-V-Y-C-5FW-[(2S, 3R)beta-OH-Phe]-hydroxyVal-dLys(DOTA)-COOH] (Ac-[hLeu]YC[Tle]G[Ala(piperidin-4-yl)][Ala(4-THP)]DVYC[Trp(5-F)][Phe(3R-OH)][Val(3-OH)][dK](DOTA)-OH; disulfide 3-11)",> 9.00
